Data reported in publication PMC8952364, “Polyphenols as Inhibitors of Antibiotic Resistant Bacteria—Mechanisms Underlying Rutin Interference with Bacterial Virulence” (Pharmaceuticals, 2022).
Like-named read-outs stand apart in the source and are kept apart here.

Legend:
HaCaT cells [1] = tested on: HaCaT cells; parameters: method as in PMID 28962387; conditions: previous assessment; cited from earlier work
A. xylosoxidans 37F = assay: Antimicrobial microdilution assay (MIC/MBC); type: cell-based, Achromobacter xylosoxidans; conditions: Achromobacter xylosoxidans, 37F
Summary of the method: (§1)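 Broth microdilution: 0.5 McFarland suspensions, diluted twenty-fold, were mixed 1:10 with polyphenol dilutions (0.0039–1 mg/mL) and incubated 24 h at 37 °C.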

S. infantis 1371/1 = assay: Antimicrobial microdilution assay (MIC/MBC); type: cell-based, Salmonella Infantis; conditions: Salmonella enterica, 1371/1
Summary of the method: as §1

HaCaT cells [2] = assay: Cytotoxicity in HaCaT cell line (crystal violet assay); type: cell-based, human; conditions: Homo sapiens; HaCaT, 24 h treatment, crystal violet; read-out: IC50 (compound concentration that inhibited 50% of the cell growth)
Summary of the method: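 HaCaT keratinocytes seeded 1 × 10^4 cells/well 24 h before treatment, then exposed to polyphenols for 24 h. Viable cells stained with crystal violet, absorbance at 590 nm. IC50 in μg/mL, triplicate with three readings each, mean ± SD.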

K. pneumoniae Ni9 = assay: Antimicrobial microdilution assay (MIC/MBC); type: cell-based, Klebsiella pneumoniae; conditions: Klebsiella pneumoniae, NI9
Summary of the method: as §1

K. pneumoniae IT977 = assay: Antimicrobial microdilution assay (MIC/MBC); type: cell-based, Klebsiella pneumoniae; conditions: Klebsiella pneumoniae, IT977
Summary of the method: as §1

E. coli IMD989 = assay: Antimicrobial microdilution assay (MIC/MBC); type: cell-based, Escherichia coli; conditions: for MIC: 37 °C, 24 h
Summary of the method: as §1

E. coli IBRS E003 = assay: Antimicrobial microdilution assay (MIC/MBC); type: cell-based, Escherichia coli; conditions: for MIC: 37 °C, 24 h
Summary of the method: as §1

P. aeruginosa MMA83 = assay: Antimicrobial microdilution assay (MIC/MBC); type: cell-based, Pseudomonas aeruginosa; conditions: Pseudomonas aeruginosa, MMA83
Summary of the method: as §1

P. aeruginosa IBRS P001 = assay: Antimicrobial microdilution assay (MIC/MBC); type: cell-based, Pseudomonas aeruginosa; conditions: Pseudomonas aeruginosa, IBRSP001
Summary of the method: as §1

A. baumannii S2/2 = assay: Antimicrobial microdilution assay (MIC/MBC); type: cell-based, Acinetobacter baumannii; conditions: Acinetobacter baumannii, S2/2
Summary of the method: as §1

A. baumannii 6077/12 = assay: Antimicrobial microdilution assay (MIC/MBC); type: cell-based, Acinetobacter baumannii; conditions: Acinetobacter baumannii, 6077/12
Summary of the method: as §1

E. coli ATCC 25922 = tested on: E. coli ATCC 25922; parameters: method as in PMID 29327068; conditions: cited from earlier work
[3] = tested on: Methicillin resistant S. aureus IBRS MRSA 011; assay: Antimicrobial microdilution assay (MIC/MBC); type: cell-based, Staphylococcus aureus; conditions: Staphylococcus aureus, MRSA
Summary of the method: as §1

[4] = subcultivation, 24 h at 37 °C, read-out: MBC

O=C(O)c1cc(O)c(O)c(O)c1 [Gallic Acid, gallic acid]
> 1000 mg/L: MIC (S. infantis 1371/1; 37 °C, 24 h, read-out: MIC) | MBC (S. infantis 1371/1; [4]) | MIC (E. coli IMD989; Escherichia coli, IMD989, read-out: MIC) | MBC (E. coli IMD989; Escherichia coli, IMD989, subcultivation, 24 h at 37 °C, read-out: MBC) | MIC (E. coli IBRS E003; Escherichia coli, IBRSE003, read-out: MIC) | MBC (E. coli IBRS E003; Escherichia coli, IBRSE003, subcultivation, 24 h at 37 °C, read-out: MBC) | MIC (P. aeruginosa IBRS P001; 37 °C, 24 h, read-out: MIC) | MBC (P. aeruginosa IBRS P001; [4]) | MIC ([3]; 37 °C, 24 h, read-out: MIC) | MBC [3, 4]
1000 mg/L: MBC (A. xylosoxidans 37F; [4]) | MIC (K. pneumoniae Ni9; 37 °C, 24 h, read-out: MIC) | MBC (K. pneumoniae Ni9; [4]) | MIC (K. pneumoniae IT977; 37 °C, 24 h, read-out: MIC) | MBC (K. pneumoniae IT977; [4]) | MIC (P. aeruginosa MMA83; 37 °C, 24 h, read-out: MIC) | MBC (P. aeruginosa MMA83; [4]) | MBC (A. baumannii 6077/12; [4])
84.2 mg/L: IC50 towards HaCaT cells (HaCaT cells [1])
>1000 mg/L: MIC (E. coli IMD989) | MIC (E. coli IBRS E003)
< 80 mg/L: IC50 (HaCaT cells [2])
500 mg/L: MIC (A. xylosoxidans 37F; 37 °C, 24 h, read-out: MIC) | MIC (A. baumannii S2/2; 37 °C, 24 h, read-out: MIC) | MBC (A. baumannii S2/2; [4]) | MIC (A. baumannii 6077/12; 37 °C, 24 h, read-out: MIC) | MIC (E. coli ATCC 25922)
